Experimental data: patent publication US11000033B2, “Ketone or oxime compound, and herbicide” (NISSAN CHEMICAL CORPORATION, priority 2014, dated 2021)

Legend:
Format in all cases: in vivo
Alopecurus myosuroides [1] = test: Test Example 4: herbicidal effect by soil treatment (symbol J); conditions: application herbicide amount 320 g/ha
In short: (§1)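 Seeds were sown in sterilized diluvial soil, covered with about 1.5 cm of soil, and the soil surface was sprayed with a water-diluted emulsion of the compound at a predetermined rate. Plants grew in a greenhouse at 25° C. to 30° C.; effects were scored visually 3 weeks after application.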

Amaranthus retroflexus [2] = test: Test Example 5: herbicidal effect by foliage application, plastic box (symbol N); conditions: 320 g/ha, 3 weeks after application
In short: (§2)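 Greenhouse foliar test: seedlings at 14 days, grown 25° C. to 30° C. in sterilized diluvial soil; compound applied as an aqueous dilution of an emulsion; response read 3 weeks after spraying.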

Setaria viridis [3] = test: Test Example 5: herbicidal effect by foliage application, plastic box (symbol G); conditions: 320 g/ha, 3 weeks after application
In short: as §2

rice plant = test: Test Example 5: effect on crop by foliage application, plastic box (symbol b); conditions: 320 g/ha, 3 weeks after application
In short: (§3)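 A greenhouse held between 25° C. and 30° C. was used to grow plants sown spot-wise, beneath ~1.5 cm of soil, in boxes of sterilized diluvial soil.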

Digitaria ciliaris = test: Test Example 5: herbicidal effect by foliage application, plastic box (symbol F); conditions: 320 g/ha, 3 weeks after application
In short: as §2

soybean [4] = test: Test Example 5: effect on crop by foliage application, plastic box (symbol d); conditions: 320 g/ha, 3 weeks after application
In short: as §3

soybean [5] = test: Test Example 4: effect on crop by soil treatment (symbol d); conditions: application herbicide amount 320 g/ha
In short: (§4)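 Soil-treatment setup: crop and weed seeds were spot-sown into sterilized diluvial soil, then buried beneath approximately 1.5 cm of it, and the boxes were housed in a 25–30° C. greenhouse.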

Lolium multiflorum Lam. = test: Test Example 4: herbicidal effect by soil treatment (symbol K); conditions: application herbicide amount 320 g/ha
In short: as §1

[6] = test system: Echinochloa crus-galli var. crus-galli; test: Test Example 5: herbicidal effect by foliage application, plastic box (symbol H); conditions: 320 g/ha, 3 weeks after application
In short: as §2

Galium spurium = test: Test Example 5: herbicidal effect by foliage application, plastic box (symbol Q); conditions: 320 g/ha, 3 weeks after application
In short: as §2

Setaria viridis [7] = test: Test Example 4: herbicidal effect by soil treatment (symbol G); conditions: application herbicide amount 320 g/ha
In short: as §1

Alopecurus myosuroides [8] = test: Test Example 5: herbicidal effect by foliage application, plastic box (symbol J); conditions: 320 g/ha, 3 weeks after application
In short: as §2

Abutilon theophrasti = test: Test Example 4: herbicidal effect by soil treatment (symbol M); conditions: application herbicide amount 320 g/ha
In short: as §1

Avena fatua = test: Test Example 4: herbicidal effect by soil treatment (symbol I); conditions: application herbicide amount 320 g/ha
In short: as §1

Amaranthus retroflexus [9] = test: Test Example 4: herbicidal effect by soil treatment (symbol N); conditions: application herbicide amount 320 g/ha
In short: as §1

corn = test: Test Example 4: effect on crop by soil treatment (symbol c); conditions: application herbicide amount 320 g/ha
In short: as §4

Stellaria media = test: Test Example 4: herbicidal effect by soil treatment (symbol P); conditions: application herbicide amount 320 g/ha
In short: as §1

Scirpus juncoides = test: Test Example 1: herbicidal activity, application before weed generation in submerged conditions (symbol B); conditions: application herbicide amount 320 g/ha
In short: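 Mixed weed seeds sown in alluvial soil under 4 cm of water, with rice seedlings at the 2.5-leaf stage added. Same-day treatment: emulsion diluted to a set herbicide amount onto the water. Three weeks at 25–30 °C, then graded on a six-step scale.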

wheat [10] = test: Test Example 5: effect on crop by foliage application, plastic box (symbol e); conditions: 320 g/ha, 3 weeks after application
In short: as §3

rice = test: Test Example 4: effect on crop by soil treatment (symbol b); conditions: application herbicide amount 320 g/ha
In short: as §4

wheat [11] = test: Test Example 4: effect on crop by soil treatment (symbol e); conditions: application herbicide amount 320 g/ha
In short: as §4

Row | Structure (SMILES) | Herbicidal effect grade, J: Alopecurus myosuroides (Alopecurus myosuroides [1]) | N: Amaranthus retroflexus, herbicidal effect (criteria of Test Example 1) (Amaranthus retroflexus [2]) | G: Setaria viridis, herbicidal effect (criteria of Test Example 1) (Setaria viridis [3]) | b: directly sowed rice plant, effect on crop (criteria of Test Example 1) (rice plant) | F: Digitaria ciliaris, herbicidal effect (criteria of Test Example 1) (Digitaria ciliaris) | d: soybean, effect on crop (criteria of Test Example 1) (soybean [4]) | Effect on crop grade, d: soybean (soybean [5]) | Herbicidal effect grade, K: Lolium multiflorum Lam. (Lolium multiflorum Lam.) | H: Echinochloa crus-galli var. crus-galli, herbicidal effect (criteria of Test Example 1) [6] | Q: Galium spurium, herbicidal effect (criteria of Test Example 1) (Galium spurium) | Herbicidal effect grade, G: Setaria viridis (Setaria viridis [7]) | J: Alopecurus myosuroides, herbicidal effect (criteria of Test Example 1) (Alopecurus myosuroides [8]) | Herbicidal effect grade, M: Abutilon theophrasti (Abutilon theophrasti) | Herbicidal effect grade, I: Avena fatua (Avena fatua) | Herbicidal effect grade, N: Amaranthus retroflexus (Amaranthus retroflexus [9]) | Effect on crop grade, c: corn (corn) | Herbicidal effect grade, P: Stellaria media (Stellaria media) | Herbicidal effect grade, B: Scirpus juncoides (Scirpus juncoides) | e: wheat, effect on crop (criteria of Test Example 1) (wheat [10]) | Effect on crop grade, b: directly sowed rice plant (rice) | other results
1 | CON=C(C)CC1CC(OC(=O)COc2ccccc2)=C(c2c(C)cc(-c3ccc(Cl)cc3Cl)cc2C)C1=O (stereo not drawn) [6-092] | 3 (Herbicidal ratio of 40% or higher and lower than 70%) | 0 (Herbicidal ratio of 5% or lower (almost no effect)) | 5 (Herbicidal ratio of 90% or more (almost completely withered)) | 4 (Herbicidal ratio of 70% or higher and lower than 90%) | 5 (Herbicidal ratio of 90% or more (almost completely withered)) | 1 (Herbicidal ratio of 5% or higher and lower than 20%) | 0 (Herbicidal ratio of 5% or lower (almost no effect)) | 5 (Herbicidal ratio of 90% or more (almost completely withered)) | 4 (Herbicidal ratio of 70% or higher and lower than 90%) | 4 (Herbicidal ratio of 70% or higher and lower than 90%) | 5 (Herbicidal ratio of 90% or more (almost completely withered)) | 5 (Herbicidal ratio of 90% or more (almost completely withered)) | 0 (Herbicidal ratio of 5% or lower (almost no effect)) | 3 (Herbicidal ratio of 40% or higher and lower than 70%) | 0 (Herbicidal ratio of 5% or lower (almost no effect)) | 0 (Herbicidal ratio of 5% or lower (almost no effect)) | 0 (Herbicidal ratio of 5% or lower (almost no effect)) | 0 (Herbicidal ratio of 5% or lower (almost no effect)) | 0 (Herbicidal ratio of 5% or lower (almost no effect)) | 4 (Herbicidal ratio of 70% or higher and lower than 90%) | Effect on crop grade, e: wheat (wheat [11]): 0 (Herbicidal ratio of 5% or lower (almost no effect))
2 | CC(=O)CC1CC(O)=C(c2c(C)cc(-c3ccccc3)cc2C)C1=O (stereo not drawn) [7-004] | 5 (Herbicidal ratio of 90% or more (almost completely withered)) | 0 (Herbicidal ratio of 5% or lower (almost no effect)) | 4 (Herbicidal ratio of 70% or higher and lower than 90%) | 5 (Herbicidal ratio of 90% or more (almost completely withered)) | 5 (Herbicidal ratio of 90% or more (almost completely withered)) | 4 (Herbicidal ratio of 70% or higher and lower than 90%) | 0 (Herbicidal ratio of 5% or lower (almost no effect)) | 5 (Herbicidal ratio of 90% or more (almost completely withered)) | 5 (Herbicidal ratio of 90% or more (almost completely withered)) | 0 (Herbicidal ratio of 5% or lower (almost no effect)) | 5 (Herbicidal ratio of 90% or more (almost completely withered)) | 5 (Herbicidal ratio of 90% or more (almost completely withered)) | 3 (Herbicidal ratio of 40% or higher and lower than 70%) | 0 (Herbicidal ratio of 5% or lower (almost no effect)) | 2 (Herbicidal ratio of 20% or higher and lower than 40%) | 4 (Herbicidal ratio of 70% or higher and lower than 90%) | 0 (Herbicidal ratio of 5% or lower (almost no effect)) | 3 (Herbicidal ratio of 40% or higher and lower than 70%) | 0 (Herbicidal ratio of 5% or lower (almost no effect)) | 5 (Herbicidal ratio of 90% or more (almost completely withered)) | Effect on crop grade, e: wheat (wheat [11]): 0 (Herbicidal ratio of 5% or lower (almost no effect))
3 | COc1ccc(-c2cc(C)c(C3=C(O)CC(CC(C)=O)C3=O)c(C)c2)cc1 (stereo not drawn) [7-006] | 0 (Herbicidal ratio of 5% or lower (almost no effect)) | 0 (Herbicidal ratio of 5% or lower (almost no effect)) | 5 (Herbicidal ratio of 90% or more (almost completely withered)) | 5 (Herbicidal ratio of 90% or more (almost completely withered)) | 5 (Herbicidal ratio of 90% or more (almost completely withered)) | 0 (Herbicidal ratio of 5% or lower (almost no effect)) | 1 (Herbicidal ratio of 5% or higher and lower than 20%) | 2 (Herbicidal ratio of 20% or higher and lower than 40%) | 5 (Herbicidal ratio of 90% or more (almost completely withered)) | 0 (Herbicidal ratio of 5% or lower (almost no effect)) | 0 (Herbicidal ratio of 5% or lower (almost no effect)) | 3 (Herbicidal ratio of 40% or higher and lower than 70%) | 0 (Herbicidal ratio of 5% or lower (almost no effect)) | 0 (Herbicidal ratio of 5% or lower (almost no effect)) | 0 (Herbicidal ratio of 5% or lower (almost no effect)) | 0 (Herbicidal ratio of 5% or lower (almost no effect)) | 0 (Herbicidal ratio of 5% or lower (almost no effect)) | 0 (Herbicidal ratio of 5% or lower (almost no effect)) | 0 (Herbicidal ratio of 5% or lower (almost no effect)) | 3 (Herbicidal ratio of 40% or higher and lower than 70%) | Effect on crop grade, e: wheat (wheat [11]): 0 (Herbicidal ratio of 5% or lower (almost no effect))
